Assays:
human PGC-1β promoter = human PGC-1β promoter luciferase reporter (phPGC1β (1.0) Luc) in L6 cells; type: cell-based; conditions: final concentration of 1 μmol/L to 10 μmol/L, 24 hours
Procedure: phPGC1β (1.0) Luc plasmid constructed in Example 9, in accordance with the following procedures. L6 cells were cultivated in a tissue culture dish having a diameter of 10 cm to become 80% confluent. The cells were cotransfected with 5 μg of the phPGC1β (1.0) Luc plasmid and 1 μg of plasmid pCH110 (Pharmacia Biotech) using a regent for transfection (FuGENE™ T6, Roche, Cat. No. 1815091). In this connection, the plasmid pCH110 containing a β-galactosidase gene regulated by a β-actin promoter was used to standardize an efficiency of transfection. After 24 hours from the transfection, the cells were transferred to a 96-well tissue culture dish, and further cultured for 6 hours. Since it was reported that the combination of forskolin and dexamethasone induced an expression of endogenous PGC-1 in hepatocytes [J. Biol. Chem., 278: 30843 (2003)], the cells were treated with 10 μmol/L (final concentration) forskolin and 1 μmol/L dexamethasone [solvent=dimethyl sulfoxide (DMSO)] for 24 hours. After the treatment, the cells were lysed with a solution for cell lysis (LCβ; Toyo Ink, Japan), and a luciferase activity therein was measured using a PicaGene luminescence kit (Toyo Ink, Japan, 309-04321). In this connection, the activity was measured 3 times per group, and each experiment was repeated at least twice, to confirm the reproducibility. […]

differentiated L6 cells = assay: activity of glucose uptake (2-deoxy-D-[U-14C] glucose) in differentiated L6 cells; type: cell-based, rat; conditions: compound at 1 μmol/L to 10 μmol/L for 24 hours, FIG. 5
Procedure: A tissue into which the largest amount of glucose can be incorporated in a living body is muscle. In this example and the following examples, a rat myoblast L6 was used to detect an activity of glucose uptake in vitro. L6 cells (ATCC, CRL-1458) were maintained in a Dulbecco's modified Eagle's medium (GIBCO BRL, USA, 11995-065) supplemented with 10% fetal bovine serum (JRH BIOSCIENCES, Cat. No. 12303-500M), and cultured in a humid atmosphere containing 5% CO2 at 37° C. When the L6 cells were confluent, the medium was changed to a Dulbecco's modified Eagle's medium supplemented with 2% horse serum (GIBCO, Cat. No. 16050), and further cultured for 5 days to perform an induction of differentiation.
The cells overexpressing human PGC-1β or human PGC-1α, prepared in accordance with the procedures described in Example 4, were used to measure an activity of glucose uptake. After 48 hours from the infection, the cells were rinsed with 1 mL of a KRP buffer ([…], 4.7 mmol/L KCl, 1.25 mmol/L CaCl2.2H2O, 1.25 mmol/L MgSO4.7H2O, and 5 mmol/L Na2HPO4.12H2O), and further cultured in 500 μL of KRP for 1 hour. […] Each lysate was mixed with 2 mL of a liquid scintillator (AQUASOL 2, PERKINELMER, Cat. No. 6NE9529), and an amount of radiolabeled compound (radioactivity, CPM) incorporated into the cells was measured using a liquid scintillation counter (PACKARD, B2500TR). […]

`Nc1cccc(-c2nc3cc(C(=O)c4ccccc4)ccc3[nH]2)c1` [compound A, 2-(3-aminophenyl)-5-benzoyl-(1H)-benzimidazole] was tested, and the “activating activity of the human PGC-1β promoter (reporter luciferase activity) in comparison with absence of the compound” value (human PGC-1β promoter) was at least 2 times and the “activity of glucose uptake in muscle cells” value (differentiated L6 cells) was “significantly activated glucose uptake”.

— US20080070249A1, “Novel Activating Agent of Glucose Uptake and a Screening Method Therefor” (ASTELLAS PHARMA INC., priority 2005, published 2008)
